Source: ChEMBL document CHEMBL3885861, “Open TG-GATES”

Species on record: Rattus norvegicus
Assay: Open TG-GATES - Regimen: Daily Repeat
Assay type: toxicity, organism-based, Sprague-Dawley
Parameters: regimen Daily Repeat, gender Male, age 6 weeks
Conditions: in vivo, po, 200 mg/kg, route gavage, dose level High; for Bas / Eos / Fbg / Hb / Ht / Lym / MCHC / MCV / Mono / Neu / PT / RBC / Ret / WBC / APTT: tissue Blood; for KIDNEY_L / KIDNEY_R / KIDNEY_TOTAL: tissue Kidney; for ALP / ALT / AST / BUN / CRE / Ca / Cl / DBIL / GLC / IP / K / RALB / TBIL / TC / TG / TP / gamma-GTP: tissue Plasma

`CCCCC1C(=O)N(c2ccccc2)N(c2ccccc2)C1=O` [PHENYLBUTAZONE] was tested, and the Bas (72 h, time 3 day) was 0%, the Eos (72 h, time 3 day) was 1% and the Fbg (72 h, time 3 day) was 309.8 mg/dL. It also gave a Hb (72 h, time 3 day) of 12.5 g/dL, a Ht (72 h, time 3 day) of 37.3% and a Lym (72 h, time 3 day) of 74.4%. It also gave an MCHC (72 h, time 3 day) of 33.5%, an MCV (72 h, time 3 day) of 63.9 fL and a Mono (72 h, time 3 day) of 9.4%. For the same compound, the Neu (72 h, time 3 day) was 15.8%, the PT (72 h, time 3 day) was 11.7 s and the RBC (72 h, time 3 day) was 586.8 x10_4/ul. For the same compound, the Ret (72 h, time 3 day) was 8.1%, the WBC (72 h, time 3 day) was 200.4 x10_2/uL and the KIDNEY_L (72 h, time 3 day) was 1.1 g. For the same compound, the KIDNEY_R (72 h, time 3 day) was 1.1 g, the KIDNEY_TOTAL (72 h, time 3 day) was 2.2 g and the ALP (72 h, time 3 day) was 627.8 IU/L. For the same compound, the ALT (72 h, time 3 day) was 27 IU/L, the AST (72 h, time 3 day) was 55.2 IU/L and the BUN (72 h, time 3 day) was 20.4 mg/dL. The CRE (72 h, time 3 day) was 0.6 mg/dL, the Ca (72 h, time 3 day) was 10.2 mg/dL and the Cl (72 h, time 3 day) was 106 meq/L. It also gave a DBIL (72 h, time 3 day) of 0 mg/dL, a GLC (72 h, time 3 day) of 189.2 mg/dL and an IP (72 h, time 3 day) of 7 mg/dL. For the same compound, the K (72 h, time 3 day) was 5.1 meq/L, the RALB (72 h, time 3 day) was 3.3 g/dL and the TBIL (72 h, time 3 day) was 0.2 mg/dL. It also gave a TC (72 h, time 3 day) of 81.8 mg/dL, a TG (72 h, time 3 day) of 168.6 mg/dL and a TP (72 h, time 3 day) of 5.8 g/dL. The gamma-GTP (72 h, time 3 day) was 2.2 IU/L, the TERMINAL_BW ([…], time 7 day) was 254.1 g and the TERMINAL_BW ([…], time 14 day) was 296 g. For the same compound, the TERMINAL_BW ([…], time 28 day) was 348.8 g, the APTT ([…], time 7 day) was 17.1 s and the Bas ([…], time 7 day) was 0%. It also gave an Eos ([…], time 7 day) of 1%, a Fbg ([…], time 7 day) of 250 mg/dL and a Hb ([…], time 7 day) of 13.4 g/dL. It also gave a Ht ([…], time 7 day) of 40.3%, a Lym ([…], time 7 day) of 77% and an MCHC ([…], time 7 day) of 33.4%. For the same compound, the MCV ([…], time 7 day) was 63.9 fL, the Mono ([…], time 7 day) was 4.6% and the Neu ([…], time 7 day) was 17.6%. For the same compound, the PT ([…], time 7 day) was 11.7 s, the RBC ([…], time 7 day) was 631.8 x10_4/ul and the Ret ([…], time 7 day) was 7.4%. For the same compound, the WBC ([…], time 7 day) was 199.8 x10_2/uL, the APTT ([…], time 14 day) was 17.5 s and the Bas ([…], time 14 day) was 0%. For the same compound, the Eos ([…], time 14 day) was 0.4%, the Fbg ([…], time 14 day) was 257.2 mg/dL and the Hb ([…], time 14 day) was 13.8 g/dL. For the same compound, the Ht ([…], time 14 day) was 41.2%, the Lym ([…], time 14 day) was 78.8% and the MCHC ([…], time 14 day) was 33.4%. It also gave an MCV ([…], time 14 day) of 59.6 fL, a Mono ([…], time 14 day) of 4.4% and a Neu ([…], time 14 day) of 16.2%. It also gave an RBC ([…], time 14 day) of 692.2 x10_4/ul, a Ret ([…], time 14 day) of 5.8% and a WBC ([…], time 14 day) of 162.2 x10_2/uL. It also gave an APTT ([…], time 28 day) of 15.6 s, a Bas ([…], time 28 day) of 0% and an Eos ([…], time 28 day) of 0.4%. It also gave a Fbg ([…], time 28 day) of 273 mg/dL, a Hb ([…], time 28 day) of 13.3 g/dL and a Ht ([…], time 28 day) of 39.7%. For the same compound, the Lym ([…], time 28 day) was 76%, the MCHC ([…], time 28 day) was 33.4% and the MCV ([…], time 28 day) was 58 fL. The Mono ([…], time 28 day) was 3%, the Neu ([…], time 28 day) was 20.4% and the RBC ([…], time 28 day) was 684.8 x10_4/ul. For the same compound, the Ret ([…], time 28 day) was 6.4%, the WBC ([…], time 28 day) was 184.3 x10_2/uL and the KIDNEY_L ([…], time 7 day) was 1.1 g. It also gave a KIDNEY_R ([…], time 7 day) of 1.1 g, a KIDNEY_TOTAL ([…], time 7 day) of 2.2 g and a KIDNEY_L ([…], time 14 day) of 1.2 g. The KIDNEY_R ([…], time 14 day) was 1.2 g, the KIDNEY_TOTAL ([…], time 14 day) was 2.4 g and the KIDNEY_L ([…], time 28 day) was 1.4 g. For the same compound, the KIDNEY_R ([…], time 28 day) was 1.5 g, the KIDNEY_TOTAL ([…], time 28 day) was 2.9 g and the ALP ([…], time 7 day) was 763 IU/L. The ALT ([…], time 7 day) was 32 IU/L, the AST ([…], time 7 day) was 57.4 IU/L and the BUN ([…], time 7 day) was 20.2 mg/dL. For the same compound, the CRE ([…], time 7 day) was 0.6 mg/dL, the Ca ([…], time 7 day) was 10.7 mg/dL and the Cl ([…], time 7 day) was 105 meq/L. The DBIL ([…], time 7 day) was 0 mg/dL, the GLC ([…], time 7 day) was 201 mg/dL and the IP ([…], time 7 day) was 8.4 mg/dL. The K ([…], time 7 day) was 4.8 meq/L, the RALB ([…], time 7 day) was 3.9 g/dL and the TBIL ([…], time 7 day) was 0.3 mg/dL. It also gave a TC ([…], time 7 day) of 75.4 mg/dL, a TG ([…], time 7 day) of 113.8 mg/dL and a TP ([…], time 7 day) of 6.6 g/dL. For the same compound, the gamma-GTP ([…], time 7 day) was 2.8 IU/L, the ALP ([…], time 14 day) was 719.2 IU/L and the ALT ([…], time 14 day) was 30.4 IU/L. It also gave an AST ([…], time 14 day) of 63 IU/L, a BUN ([…], time 14 day) of 26.6 mg/dL and a CRE ([…], time 14 day) of 0.6 mg/dL. For the same compound, the Ca ([…], time 14 day) was 10.7 mg/dL, the Cl ([…], time 14 day) was 106.2 meq/L and the DBIL ([…], time 14 day) was 0.008 mg/dL. The GLC ([…], time 14 day) was 184.6 mg/dL, the IP ([…], time 14 day) was 8.4 mg/dL and the K ([…], time 14 day) was 4.3 meq/L. The RALB ([…], time 14 day) was 3.9 g/dL, the TBIL ([…], time 14 day) was 0.4 mg/dL and the TC ([…], time 14 day) was 69.6 mg/dL. The TG ([…], time 14 day) was 147.6 mg/dL, the TP ([…], time 14 day) was 6.4 g/dL and the gamma-GTP ([…], time 14 day) was 1.2 IU/L. For the same compound, the ALP ([…], time 28 day) was 413 IU/L, the ALT ([…], time 28 day) was 28.2 IU/L and the AST ([…], time 28 day) was 57.2 IU/L. The BUN ([…], time 28 day) was 24.2 mg/dL, the CRE ([…], time 28 day) was 0.6 mg/dL and the Ca ([…], time 28 day) was 10.5 mg/dL. For the same compound, the Cl ([…], time 28 day) was 106.8 meq/L, the DBIL ([…], time 28 day) was 0.02 mg/dL and the GLC ([…], time 28 day) was 174.2 mg/dL. The IP ([…], time 28 day) was 7.4 mg/dL, the K ([…], time 28 day) was 4.4 meq/L and the RALB ([…], time 28 day) was 3.9 g/dL. For the same compound, the TBIL ([…], time 28 day) was 0.3 mg/dL, the TC ([…], time 28 day) was 72.2 mg/dL and the TG ([…], time 28 day) was 166.2 mg/dL. For the same compound, the TP ([…], time 28 day) was 6.1 g/dL and the gamma-GTP ([…], time 28 day) was 1.8 IU/L.
